# Source: US11564913B2, “Compositions and methods for treating cancer” (Children's Hospital Medical Center, priority 2019, dated 2023)
# Experiments:
# [1] = test system: Rac-dependent and -independent effectors in EGFP+/B220+ LDBM cells; test: Pharmacodynamic phospho-flow analysis of leukemic progenitor cells from treated p210(T315I) mice; assay type: in vivo; settings: two-week treated mice
# Excerpt: LDBM cells were transduced with TKI-resistant p210-BCR-ABL1(T315I) (gatekeeper mutant) and transplanted into recipient mice as in FIG. 10. Pumps were surgically introduced into mice (N=5 per treatment group) and treatment lasted 28 days or two rounds of pumps. After 28 days, mice were monitored without any additional treatment. (A) Kaplan-Meier survival plot of imatinib-resistant mice. […] (B) Flow cytometric analysis of leukemic progenitor (EGFP^+) B-cells in peripheral blood (PB) at the indicated week. Only IODVA1-treated mice remained alive for analysis at weeks 5, 7, and 10.
# To assess signaling pathways affected by IODVA1. EGFP^+/B220^+ LDBM cells were isolated from two-week treated p210(T315I) mice, stained with phospho-antibodies against the pro-proliferative Rac-dependent effectors JNK, PAK, 4EBP, and S6 and the Rac-independent effectors ERK1/2, STAT3, STAT5, p38, and AKT, and analyzed by flow cytometry. […] Phosphorylation levels of p38, ERK, STAT3, STAT5, and AKT were not affected by IODVA1. […] Taken together, IODVA1 not only overcomes TKI-resistance but also eliminates TKI-resistant leukemic stem/progenitor cells likely by acting on imatinib-independent growth signaling pathways that involve Rac effectors.
# [2] = test system: murine colon adenocarcinoma MC38 tumors; test: MC38 colon adenocarcinoma mouse model; assay type: in vivo, mice
# Procedure: FIG. 21: NIRA2 inhibits tumor growth of murine colon adenocarcinoma xenografts. […] Animals began treatment with vehicle, IODVA1, or NIRA2 (N=10 per group) when tumors reached 100-200 mm^3 in volume (day 12 post-injection) and received treatment 5 times per week for two weeks. Representative pictures of the spleens and extracted tumors are shown.
# The in vivo efficacy of NIRA2 was tested against a xenograft mouse model generated with the murine colon adenocarcinoma MC38 cells. Cells were injected subcutaneously in the flank of a hind leg. Each injection contained one million cells of Matrigel+MC38 in a volume of […]. Tumors were calipered until an average size of 100-200 mm^3 is reached. Animals were sorted in into treatment groups (N=10) and administered (5× a week) by IP 250 μL of a PBS solution containing vehicle control, IODVA1 (1 mM), or NIRA2 (0.5 mM). Treatments lasted 2 weeks Animals were euthanized as tumor size reached 2 cm^3 or at the end of the study. Tumors were measured daily and mice weighed 3 times a week.
# recombinant Vav3 = biological target: T1, recombinant Vav3 (Homo sapiens, UniProt Q9UKW4); test: Microscale thermophoresis (MST) binding; settings: one molecule of IODVA1 binds, read-out: binding affinity (Kd)
# T1 construct: His6; made in house; host or cells: E. coli BL21 (DE3) or T7 Express, co-expressed with groEL-groES
# Procedure: FIG. 14: IODVA1 targets Vav3 in vitro and in vivo. (A) Ba/F3 cells expressing empty vector Mieg3 or p190-BCR-ABL1 were treated with vehicle control or IODVA1 (IO1, 3 μM) for 30 min and incubated with GST-Rac and glutathione beads. Beads were washed and the protein complexes were separated on SDS-PAGE and immunoblotted for pVav3. Input Vav3 was used as control. (B) Binding affinity (Kd) between IODVA1 and Vav3 (green), LARG (brown), and RacGDP (blue). […] Error bars=SD; N=3. (C) Quantification of the average number of colonies made by bone marrow wild-type (black) and Vav3^−/− (lilac) p190-BCR-ABL1 leukemic cells treated with vehicle control or IODVA1 (IO1, 1 and 3 μM) (* p≤0.05; ** p≤0.01; *** p≤0.001; ns, not significant). (D) Representative histogram data of the cell cycle analysis of wild-type (black and grey bars) and Vav3^−/− (dark and light lilac) bone marrow cells expressing p190-BCR-ABL and treated with vehicle control or IODVA1 (IO1, 3 μM) for 20 h. (E) Quantification by densitometry of the pVav3 band from FIG. 14A. […]
# To test this hypothesis, we measured its binding affinity (Kd) to recombinant Vav3 and Rac1 using microscale thermophoresis (MST); the catalytic domain (DH/PH) of the RhoGEF LARG served as negative control. […] Second, like Vav3, LARG contains a DH/PH domain responsible for the exchange activity such that any non-specific binding to this domain should be detected. […]
# T1 sequence (Q9UKW4 whole entry, species assumed): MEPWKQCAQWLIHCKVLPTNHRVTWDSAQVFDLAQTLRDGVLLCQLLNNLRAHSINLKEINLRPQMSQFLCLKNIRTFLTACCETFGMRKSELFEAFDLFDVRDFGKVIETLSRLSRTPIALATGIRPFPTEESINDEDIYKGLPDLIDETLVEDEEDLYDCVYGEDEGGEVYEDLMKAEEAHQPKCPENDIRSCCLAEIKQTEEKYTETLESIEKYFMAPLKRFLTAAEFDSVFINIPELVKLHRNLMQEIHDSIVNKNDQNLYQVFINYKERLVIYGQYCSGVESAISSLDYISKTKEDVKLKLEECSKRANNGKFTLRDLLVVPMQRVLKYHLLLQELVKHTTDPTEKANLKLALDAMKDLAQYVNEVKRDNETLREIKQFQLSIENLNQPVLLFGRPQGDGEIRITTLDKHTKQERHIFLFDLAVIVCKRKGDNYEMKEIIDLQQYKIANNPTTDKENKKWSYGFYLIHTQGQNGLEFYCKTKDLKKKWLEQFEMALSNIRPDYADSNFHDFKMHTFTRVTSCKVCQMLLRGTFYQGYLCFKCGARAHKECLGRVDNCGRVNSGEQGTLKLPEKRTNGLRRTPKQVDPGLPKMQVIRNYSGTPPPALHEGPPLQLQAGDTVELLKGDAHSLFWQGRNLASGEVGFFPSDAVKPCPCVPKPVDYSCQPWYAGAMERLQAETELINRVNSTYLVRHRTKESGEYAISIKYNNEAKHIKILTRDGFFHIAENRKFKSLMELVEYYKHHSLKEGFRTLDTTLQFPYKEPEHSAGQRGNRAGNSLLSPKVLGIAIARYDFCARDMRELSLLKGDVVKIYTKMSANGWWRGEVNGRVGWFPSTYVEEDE
smiles,measurement,setting,value
"OC1(c2ccccn2)N=C(Nc2nc3ccccc3[nH]2)N=C1c1ccccn1 (centres unmarked) [IODVA1, (Z)-2-((1H-benzo[d]imidazol-2-yl)imino)-4,5-di(pyridin-2-yl)-2,5-dihydro-1H-imidazol-5-ol]","phosphorylation levels of p38, ERK, STAT3, STAT5, and AKT",[1],not affected
same,decrease in pS6,[1]; p=0.0012,17.8%
same,decrease in pPAK,[1]; p=0.0016,56%
same,decrease in pJNK,[1]; p=0.0029,55%
same,decrease in p4EBP,[1]; p=0.037,20.3%
same,tumor growth and tumor volumes,"[2]; IP 250 μL of 1 mM, 5× a week, 2 weeks",significantly reduced
same,effect on spleen,[2]; end of the study,did not notice any effect
same,Kd,recombinant Vav3,512 nM
